Patent publication EP0914370B1, “PROCESS FOR PRODUCING CLOSED CELL THERMOPLASTIC FOAMS CONTAINING HFC-134” (E.I. DU PONT DE NEMOURS AND COMPANY, priority 1996, dated 1998)
Marks after values point to notes of the source that are not given here.

Experiments:
[1] = Solubility and solution pressure of blowing agents in Quantum "Petrothene" grade low density polyethylene, same procedure; format: physicochemical
[2] = Solubility and solution pressure of blowing agents in polystyrene resin, calculated with the Flory-Huggins equation; format: physicochemical; conditions: for WT% Blowing Agent Dissolves in Resin: atmospheric pressure (14.7 psia, 1 bar)
Text: Certain aspects of the invention are illustrated by the Figures. The accompanying figures illustrate the suitability of HFC-134 as blowing agent for producing polystyrenic foam bodies, the data presented therein were obtained with the aid of the well-known Flory-Huggins equation (Flory, P.J.: "Principles of Polymer Chemistry"; Cornell University Press, Ithaca, N.Y.), discussed below.
These equilibrium pressures relate to the point in the extrusion process where blowing agent is mixed with resin; foaming cannot occur at these pressures.
The data presented in Figures 3-6 were determined through use of the Flory-Huggins equation for phase equilibria in polymer solutions. This equation uses values for the following parameters [(1) - (4)], which were obtained as follows: (1) liquid densities of the blowing agents, g/cc, were derived by using standard methods, drawing a straight line through the liquid density data (based on National Institute of Standards and Technology, NIST, experimental data; with equations based on the Modified Benedict-Webb-Rubin, MBWR, equation of state) from -50°C to 50°C and calculating the liquid density as a function of temperature. The density (d) equation recites: d=AT+B, wherein A is the slope of the line, B is the constant of the line, and T temperature (°C). The liquid densities are (grams/cubic centimeter, g/cm^3):
(2) The densities of the superheated vapors of the blowing agents, which are tabulated below, were calculated from the known vapor data of their thermodynamic properties (based on National Institute of Standards and Technology, NIST, experimental data; with equations based on the Modified Benedict-Webb-Rubin, MBWR, equation of state).
(3) The activity coefficients for the blowing agents that are tabulated below:
These coefficients were determined by dividing the experimental blowing agent partial pressure by the saturated vapor pressure at that temperature. (4) The interaction parameters, X1, were determined at four temperatures, and are presented graphically as a function of temperature in Figure 2 by means of the following equation and equation constants: X1 = A/T + B [formula] (where T = °K = °C + 273.2)
Such data are presented graphically in Figures 3, 4, 5 and 6. Figures 3-6 are plots of "weight% Blowing Agent Dissolved in Resin vs. Pressure of Solution" as a function of temperature. Representative solubilities of the blowing agents in the given resin at various extrusion process temperatures at atmospheric pressure (14.7 psia, 1 bar), are listed below in Table 1: Table 1

[3] = low density polyethylene, 25°C, 1 Atm
[4] = low density polyethylene, 180°C, 1 Atm
[5] = low density polyethylene, Extruder Temp 180°C
[6] = polystyrene resin, 25°C (footnote *)

Row | SMILES | Solubility (wt % HFC) at 1 Atm of HFC Pres. 25°C [1, 3] [wt % HFC] | Solubility (wt % HFC) at 1 Atm of HFC Pres. Ext Temp [1, 4] [wt % HFC] | Limiting Solubility (wt % HFC) [1, 5] [wt % HFC] | Limiting Solubility (wt % HFC) [2] [wt % HFC] | Solubility (wt % HFC) at 1 Atm of HFC Pres. 25°C [2] [wt % HFC] | Solubility (wt % HFC) at 1 Atm of HFC Pres. Ext Temp [2] [wt % HFC] | WT% Blowing Agent Dissolves in Resin ([2]; polystyrene resin, 60°C) [WT%] | WT% Blowing Agent Dissolves in Resin ([2]; polystyrene resin, 100°C) [WT%] | WT% Blowing Agent Dissolves in Resin ([2]; polystyrene resin, 140°C) [WT%] | WT% Blowing Agent Dissolves in Resin ([2]; polystyrene resin, 180°C) [WT%] | WT% Blowing Agent Dissolves in Resin ([2]; polystyrene resin, 200°C) [WT%] | Solubility (wt % HFC) at 1 Atm of HFC Pres. 25°C ([2]; polystyrene resin, 25°C, 1 Atm) [wt % HFC] | Solubility (wt % HFC) at 1 Atm of HFC Pres. Ext Temp ([2]; polystyrene resin, 180°C, 1 Atm) [wt % HFC] | Limiting Solubility (wt % HFC) ([2]; polystyrene resin, Extruder Temp 180°C) | WT% Blowing Agent Dissolves in Resin ([2]; polystyrene resin, 20°C) [WT%] | HFC-134/HFC-134a solubility ratio [2] | WT% Blowing Agent Dissolves in Resin [2, 6] | Limiting Solubility (wt % HFC) [1] [wt % HFC] | Solubility (wt % HFC) at 1 Atm of HFC Pres. 25°C [1] [wt % HFC] | Solubility (wt % HFC) at 1 Atm of HFC Pres. Ext Temp [1] [wt % HFC]
1 | FC(F)(Cl)C(F)(F)Cl [HCFC-114, 1,2-dichloro-1,1,2,2-tetrafluoroethane] | 2.01 | 0.38 | 78 | – | – | – | – | – | – | – | – | – | – | – | – | – | – | – | – | –
2 | FC(F)C(F)F [HFC-134, 1,1,2,2-tetrafluoroethane] | – | – | – | 81 | 0.54 | 0.2 | 0.5 | 0.4 | 0.3 | 0.2 | 0.15 | – | – | – | – | about 2/1 | 0.6* WT% | 81 | 0.64 | 0.20
3 | CCF [HFC-161, 1-fluoroethane] | 0.22 | 0.24 | 89 | – | – | – | – | – | – | – | – | – | – | – | – | – | – | – | – | –

Second part, led by results:

Row | Solubility (wt % HFC) at 1 Atm of HFC Pres. 25°C [1, 3] [wt % HFC] | Solubility (wt % HFC) at 1 Atm of HFC Pres. Ext Temp [1, 4] [wt % HFC] | Limiting Solubility (wt % HFC) [1, 5] [wt % HFC] | Limiting Solubility (wt % HFC) [2] [wt % HFC] | Solubility (wt % HFC) at 1 Atm of HFC Pres. 25°C [2] [wt % HFC] | Solubility (wt % HFC) at 1 Atm of HFC Pres. Ext Temp [2] [wt % HFC] | WT% Blowing Agent Dissolves in Resin ([2]; polystyrene resin, 60°C) [WT%] | WT% Blowing Agent Dissolves in Resin ([2]; polystyrene resin, 100°C) [WT%] | WT% Blowing Agent Dissolves in Resin ([2]; polystyrene resin, 140°C) [WT%] | WT% Blowing Agent Dissolves in Resin ([2]; polystyrene resin, 180°C) [WT%] | WT% Blowing Agent Dissolves in Resin ([2]; polystyrene resin, 200°C) [WT%] | Solubility (wt % HFC) at 1 Atm of HFC Pres. 25°C ([2]; polystyrene resin, 25°C, 1 Atm) [wt % HFC] | Solubility (wt % HFC) at 1 Atm of HFC Pres. Ext Temp ([2]; polystyrene resin, 180°C, 1 Atm) [wt % HFC] | Limiting Solubility (wt % HFC) ([2]; polystyrene resin, Extruder Temp 180°C) | WT% Blowing Agent Dissolves in Resin ([2]; polystyrene resin, 20°C) [WT%] | SMILES | HFC-134/HFC-134a solubility ratio [2] | WT% Blowing Agent Dissolves in Resin [2, 6] | Limiting Solubility (wt % HFC) [1] [wt % HFC] | Solubility (wt % HFC) at 1 Atm of HFC Pres. 25°C [1] [wt % HFC] | Solubility (wt % HFC) at 1 Atm of HFC Pres. Ext Temp [1] [wt % HFC]
4 | 0.22 | 0.14 | 74 | – | – | – | 0.2 | 0.19 | 0.15 | 0.1 | 0.08 | 0.16 | 0.11 | 69 | – | FCC(F)(F)F [HFC-134a, 1,1,1,2-tetrafluoroethane] | – | 0.16* WT% | – | – | –
5 | – | – | – | 69 | 0.04 | 0.07 | 0.08 | 0.13 | 0.1 | 0.07 | 0.05 | – | – | – | 0.04 | CC(F)(F)F [HFC-143a, 1,1,1-trifluoroethane] | – | – | – | – | –
6 | – | – | – | 83 | 0.76 | 0.2 | 0.5 | 0.4 | 0.3 | 0.2 | 0.15 | – | – | – | 0.8 | CC(F)F [HFC-152a, 1,1-difluoroethane] | – | – | – | – | –
